Experimental findings from US20040147028A1, “Yeast treatment” (priority 2002, published 2004) are described below.

Read-outs that look alike come from different tables or passages of the source.

In test [1] the test system is yeast protoplasts. Put plainly: Endocytosis study: yeast protoplasts incubated with dye-bound liposomes, confocal and transmission electron microscopy. In kind it is cell-based, Saccharomyces cerevisiae (YNN 281). The settings on record: dye incubated alone with the formed protoplasts, unencapsulated. The procedure: An 0.8 ml aliquot of protoplast suspension was dispensed through a large orifice pipette tip (ensuring minimal disturbance of the fragile protoplast) into a sterilised eppendoff tube to which was added 0.8 ml of the liposome suspension obtained from the gel filtration. Both solutions were of equivalent densities to ensure the stability of the protoplast and gently mixed prior to incubation. The tubes were individually wrapped in foil and embedded on their side in a sheet of Styrofoam which was also wrapped in foil to ensure the tubes would remain in place and then immersed into a water bath a 37° C. for the 90 minute incubation.
A 20 ul sample of the incubated suspension was applied to a microscope slide with the edges of the cover slip sealed with an acrylic resin to inhibit drying out of the sample. The slides once made were stored in the dark to reduce the risk of a loss in fluorescence of the FITC conjugate and viewed immediately under phase contrast and fluorescence using the confocal microscope.
The technique used for preparing sections of block-mounted cells for image analysis required 0.5 ml of the protoplast-liposome suspension to be fixed with 50 ul of 1.25% (v/v) glutaraldehyde and 1.0% (w/v) paraformaldehyde in a 0.2M cacodylate buffer at pH 7.2 for 1 hour. The fixed suspension was then mixed with a similar volume of 5.0% agarose and placed at 4° C. for 20 minutes to set. […]

Test [2] deals with yeast protoplasts. As for the experimental part:
To ensure the competent nature of the formed protoplast to undertake endocytosis, the yeast cells were grown on a modified YEPD media in which the 2% (w/v) dextrose was replaced by 4% (w/v) sucrose as the carbon source to facilitate a mechanism for the absorption and transport of the sucrose C14 by the yeast cells. Protoplasts were formed as described above and isolated again utilising a sorbitol based density gradient. Silicon oil isolation of protoplasts is a convenient method for separating radio labelled cells from a sugar gradient solution. […] Seven micro tubes (400 ul) were prepared for pelletising the protoplasts with each containing 10 ul of Fluorinert FC 77 as a capture solution and 100 ul of Silicon Oil AR 200 (Density of 1.05 g/1) as the media to be used for the separation of sucrose C14 protoplasts. In the experiment 40 ul of a 1M sucrose (made in a 50 ml volumetric flask) was used to which was added 2 ul of the sucrose C14 stock. Then 1.2 ml of the protoplast suspension was placed into a 1.5 ml eppendoff tube and 12 ul of the 1M sucrose C14 solution was placed in the cap. The incubation time started when the cap was sealed onto the eppendoff tube. Next, 100 ul aliquots of the protoplasts were taken at 10 minute intervals and placed sequentially into a series of the prepared 400 ul tubes containing the silicon oil gradients and spun at 7000 rpm for 10 second. The tubes were removed at each time interval and cut through the upper silicon oil fraction to capture the formed protoplast pellet and resuspended in 100 ul of Milli Q water in a scintillation tube containing 3 ml of scintillation fluid. As a standard, 100 ul volumes of the 1M sucrose containing the sucrose C14 were taken for counting but not spun through the silicon oil as were the protoplasts without the isotope but these spun through the silicon oil and counted to avoid quenching correction of the protoplast extract.
A graph of time vs. counts, recorded as nmoles of absorbed sucrose was then prepared to confirm the uptake of our sucrose isotope by the competent protoplasts.
Standards were prepared and measured for background scintillation without the added isotope and 100 ul of a 1M sucrose standard continuing the isotope was measured to obtain counts for a 1 umole solution of sucrose.

In the case of “fluorescein isothiocyanate dextran [formula 13]”, in the test on yeast protoplasts [1], the “passive migration across the plasma membrane of protoplasts (false positive)” value is “eliminated this situation”.
Same read-out and setting: as for `O=C(O)CN(CC(=O)O)Cc1cc2c(cc1O)Oc1cc(O)c(CN(CC(=O)O)CC(=O)O)cc1C21OC(=O)c2ccccc21` [calcein], the entry is “some passive migration of this molecule across the plasma membrane”.
As for `O[14CH2]C1OC(O[C@@]2([14CH2]O)OC([14CH2]O)C(O)C2O)C(O)C(O)C1O` (stereo partly drawn) [I-Sucrose 14 C, I-sucrose-ul-14C], the “I-Sucrose 14 C uptake” value came to 1.87 nmol in the test on yeast protoplasts [2] (time 1 min); 6.62 nmol in the test with yeast protoplasts [2] (time 10 min); 13.4 nmol with yeast protoplasts [2] (time 20 min); 17.9 nmol in the test with yeast protoplasts [2] (time 30 min); 26.6 nmol in the test with yeast protoplasts [2] (time 40 min); 35.9 nmol in the test on yeast protoplasts [2] (time 50 min). In addition, the “I-Sucrose 14 C uptake” value with yeast protoplasts [2] (time 60 min) was 56.9 nmol.
